Data taken from patent publication US20240309043A1, “THERAPEUTICALLY ACTIVE STEROIDAL DERIVATIVES” (Organon R&D Finland Ltd., priority 2017, published 2024).

Legend:
Assay type in all cases: biochemical
[1] = biological target: T1, recombinant human 17β-HSD2 (Homo sapiens, UniProt P37059); test: Inhibition of recombinant human 17β-HSD2; conditions: inhibitor 1 μM; 50 nM estradiol, 1 mM NADH, 30 min RT
T1 construct: made in house; host or cells: Sd9 (Sf9) insect cells, baculovirus (Bac to Bac Expression System)
T1 sequence (P37059 1-387): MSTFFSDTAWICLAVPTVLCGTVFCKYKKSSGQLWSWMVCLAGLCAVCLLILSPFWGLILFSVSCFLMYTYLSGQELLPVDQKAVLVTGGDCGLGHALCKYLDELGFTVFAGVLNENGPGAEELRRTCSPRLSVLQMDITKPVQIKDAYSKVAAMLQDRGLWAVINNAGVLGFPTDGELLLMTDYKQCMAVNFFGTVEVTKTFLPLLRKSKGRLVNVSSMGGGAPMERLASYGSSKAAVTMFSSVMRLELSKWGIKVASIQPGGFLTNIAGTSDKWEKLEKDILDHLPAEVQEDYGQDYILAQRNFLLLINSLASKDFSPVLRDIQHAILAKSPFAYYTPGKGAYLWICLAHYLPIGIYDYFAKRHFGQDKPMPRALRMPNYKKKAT
Description: 17β-HSD2 production and isolation: Similarly to 17β-HSD1 the Recombinant baculovirus was generated by the “Bac to Bac Expression System” (Invitrogen). Recombinant bacmid was transfected to Sd9 insect cells using “Cellfectin Reagent” (Invitrogen). 60 h later cells were harvested and supernatant were fractionated by the following protocol: • cells were dissolved into 40 ml of A-buffer (40 mM TRIS, pH 8.0, 20% glycerol, 20 μM NAD, 0.4 mM PMSF, 150 mM NaCl, 0.5% dodecyl-β-maltoside+protease inhibitor cocktail) • cells were sonicated • lysate was incubated on ice for 15 min • lysate was centrifuged 5000 rpm 15 min, +4° C. • centrifugation of the supernatant 180 000 g 30 min, +4° C. • pellet was dissolved into 8 ml of A-buffer • not resuspended material was removed by centrifugation 5000 rpm min, +4° C. • the clear supernatant was divided into 100 μl aliquots and were stored frozen until determination of enzymatic activity.
The amount of 17β-HSD2 was analysed by immunoblotting and total protein concentration of each extract batch was determined.
Assay—Inhibition of recombinant human 17β-HSD2: Recombinant protein (4 μg/ml) was incubated in 20 mM KH2PO4 pH 8.5 with 50 nM estradiol (including 800 000 cpm/ml of ^3H-estradiol) and 1 mM NADH for 30 min at RT, in the presence of the potential inhibitor at concentrations 1 μM or 0.1 μM. Inhibitor stock solutions were prepared in DMSO. Final concentration of DMSO was adjusted to 1% in all samples. The enzyme reaction was stopped by addition of 10% trichloroacetic acid (final concentration). Samples were centrifuged in a microtiter plate at 4000 rpm for 10 min. Supernatants were applied to reverse phase HPLC on a Waters Symmetry C18 column, equipped with a Waters Sentry Guard column. Isocratic HPLC runs were performed at RT at a flow rate of 1 ml/min in acetonitrile:water 48:52 as running solvent. Radioactivity was monitored in the eluate by a Scintillation Analyzer. Total radioactivity for estrone and estradiol were determined in each sample and percent conversion of estradiol to estrone was calculated according to the following formula:
(§1) [formula] Percent inhibition was calculated flowingly: % inhibition=100−% conversion

[2] = system: HSD1 enzyme that is expressed in rabbit placenta tissue; test: Inhibition of E1 to E2 conversion in rabbit placenta tissue homogenate; conditions: inhibitor 100 nM, 30 nM estrone, 30 min
Description: The assay is based on an enzymatic reaction where HSD1 enzyme that is expressed in rabbit placenta tissue converts its natural substance estrone (E1) to estradiol (E2) in the presence of a co-factor β-NADPH.
Homogenization of rabbit placenta tissue: Weight a piece of the frozen tissue into a Precellys ck28 bead tube. Add buffer solution (20 mM KH2PO4 with 1 mM EDTA, pH 7,4) in 1:2 ratio (e.g. 300 mg of tissue:600 μl reaction buffer solution). Insert the bead tubes to homogenizer and homogenize 2×30 s. 6000 rpm. Centrifugated 5 min., 2600 rpm at +4° C. and collect supernatant. Aliquots of homogenate are stored in −80° C.
Assay—Inhibition of E1 to E2 conversion in rabbit placenta tissue: The reaction takes place in a buffer solution (20 mM KH2PO4 with 1 mM EDTA, pH 7,4), including appropriate amount of rabbit placenta homogenate, co-factor (1 mM β-NADPH), Substrate (30 nM estrone), labelled substrate as tracer (5 nM [^3H]-estrone). During a 30-minute incubation part of the estrone is converted to estradiol. The reaction is stopped by lowering the pH to 1 with 10% trichloro acetic acid (TCA). The substrate and conversion products are analyzed by HPLC and a Scintillation counter analyzer. Total radioactivity for estrone and estradiol were determined in each sample and percent conversion of estrone to estradiol was calculated according to the following formula:
Percent inhibition was calculated flowingly: % inhibition=100−% conversion.

[3] = biological target: T2, recombinant human 17β-HSD1 (Homo sapiens, UniProt P14061); test: Inhibition of recombinant human 17β-HSD1; conditions: inhibitor 100 nM; 30 nM estrone, 1 mM NADPH, 30 min RT
T2 construct: made in house; host or cells: Sd9 (Sf9) insect cells, baculovirus (Bac to Bac Expression System)
T2 sequence (P14061 1-328): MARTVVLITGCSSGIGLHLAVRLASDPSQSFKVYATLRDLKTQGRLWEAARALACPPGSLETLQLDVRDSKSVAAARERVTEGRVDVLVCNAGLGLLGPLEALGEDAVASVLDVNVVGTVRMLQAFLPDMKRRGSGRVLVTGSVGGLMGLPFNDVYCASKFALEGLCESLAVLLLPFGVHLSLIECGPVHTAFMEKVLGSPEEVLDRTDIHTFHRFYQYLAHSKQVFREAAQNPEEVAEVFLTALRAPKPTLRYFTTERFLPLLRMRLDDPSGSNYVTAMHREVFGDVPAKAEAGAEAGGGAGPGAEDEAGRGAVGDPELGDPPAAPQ
Description: 17β-HSD1 production and isolation: Recombinant baculovirus was generated by the “Bac to Bac Expression System” (Invitrogen). Recombinant bacmid was transfected to Sd9 insect cells using “Cellfectin Reagent” (Invitrogen). 60 h later cells were harvested; the microsomal fraction was isolated as described by Puranen, T. J., Poutanen, M. H., Peltoketo, H. E., Vihko, P. T. and Vihko, R. K. (1994) Site-directed mutagenesis of the putative active site of human 17 β-hydroxysteroid dehydrogenase type 1. Biochem. J. 304: 289-293. Aliquots were stored frozen until determination of enzymatic activity.
Assay—Inhibition of recombinant human 17β-HSD1: Recombinant protein (1 μg/ml) was incubated in 20 mM KH2PO4 pH 7.4 with 30 nM estrone (including 800 000 cpm/ml of ^3H-estrone) and 1 mM NADPH for 30 min at RT, in the presence of the potential inhibitor at concentrations 1 μM or 0.1 μM. Inhibitor stock solutions were prepared in DMSO. Final concentration of DMSO was adjusted to 1% in all samples. The enzyme reaction was stopped by addition of 10% trichloroacetic acid (final concentration). Samples were centrifuged in a microtiter plate at 4000 rpm for 10 min. Supernatants were applied to reverse phase HPLC on a Waters Symmetry C18 column, equipped with a Waters Sentry Guard column. Isocratic HPLC runs were performed at RT at a flow rate of 1 ml/min in acetonitrile:water 48:52 as running solvent. Radioactivity was monitored in the eluate by a Scintillation Analyzer. Total radioactivity for estrone and estradiol were determined in each sample and percent conversion of estrone to estradiol was calculated according to the following formula:
as §1

Row | Compound | inhibition at 1 µM [1] [%] | Rabbit placenta inhibition % @100 nM [2] [%] | inhibition at 0.1 µM [3] [%]
1 | C[C@]12CCC3c4cccc(F)c4CCC3C1[C@H](CCC(=O)NC1COC1)C/C2=N\O (stereo partly drawn) [Compound 10, 3-((13S,15R,E)-4-fluoro-17-(hydroxyimino)-13-methyl-7,8,9,11,12,13,14,15,16,17-decahydro-6H-cyclopenta[a]phenanthren-15-yl)-N-(oxetan-3-yl)propanamide] | 5 | 18 | 30
2 | CN(C(=O)CC[C@@H]1C/C(=N\O)[C@@]2(C)CCC3c4cccc(F)c4CCC3C12)C1COC1 (stereo partly drawn) [Compound 12, 3-((13S,15R,E)-4-fluoro-17-(hydroxyimino)-13-methyl-7,8,9,11,12,13,14,15,16,17-decahydro-6H-cyclopenta[a]phenanthren-15-yl)-N-methyl-(oxetan-3-yl)propanamide] | 2 |  | 73
3 | C[C@]12CCC3c4cccc(F)c4CCC3C1[C@H](CCC(=O)N1CCCC1)C/C2=N\O (stereo partly drawn) [Compound 14, 3-((13S,15R,E)-4-fluoro-17-(hydroxyimino)-13-methyl-7,8,9,11,12,13,14,15,16,17-decahydro-6H-cyclopenta[a]phenanthren-15-yl)-1-(pyrrolidin-1-yl)propan-1-one] | 4 | 14 | 53
4 | Cc1ccc(NC(=O)CC[C@@H]2C/C(=N\O)[C@@]3(C)CCC4c5cccc(F)c5CCC4C23)nn1 (stereo partly drawn) [Compound 16, 3-((13S,15R,E)-4-fluoro-17-(hydroxyimino)-13-methyl-7,8,9,11,12,13,14,15,16,17-decahydro-6H-cyclopenta[a]phenanthren-15-yl)-N-(6-methylpyridazin-3-yl) propanamide] | 9 | 81 | 79
5 | C[C@]12CCC3c4cccc(F)c4CCC3C1[C@H](CCC(=O)Nc1nncs1)C/C2=N\O (stereo partly drawn) [Compound 18, 3-((13S,15R,E)-4-fluoro-17-(hydroxyimino)-13-methyl-7,8,9,11,12,13,14,15,16,17-decahydro-6H-cyclopenta[a]phenanthren-15-yl)-N-(1,3,4-thiadiazol-2-yl)propanamide] | 14 | 62 | 68
6 | CCN(CC)C(=O)CC[C@@H]1C/C(=N\O)[C@@]2(C)CCC3c4cccc(F)c4CCC3C12 (stereo partly drawn) [Compound 24, N,N-diethyl-3-((13S,15R,E)-4-fluoro-17-(hydroxyimino)-13-methyl-7,8,9,11,12,13,14,15,16,17-decahydro-6H-cyclopenta[a]phenanthren-15-yl)propanamide] | 12 | 18 | 85
7 | C[C@]12CCC3c4ccc(F)cc4CCC3C1[C@H](CCC(=O)Nc1ccc(F)cn1)C/C2=N\O (stereo partly drawn) [Compound 26, 3-((13S,15R,E)-3-fluoro-17-(hydroxyimino)-13-methyl-7,8,9,11,12,13,14,15,16,17-decahydro-6H-cyclopenta[a]phenanthren-15-yl)-N-(5-fluoropyridin-2-yl)propanamide] | 8 | 10 | 49
8 | C[C@]12CCC3c4ccc(F)cc4CCC3C1[C@H](CCC(=O)Nc1cccnn1)C/C2=N\O (stereo partly drawn) [Compound 34, 3-((13S,15R,E)-3-fluoro-17-(hydroxyimino)-13-methyl-7,8,9,11,12,13,14,15,16,17-decahydro-6H-cyclopenta[a]phenanthren-15-yl)-N-(pyridazin-3-yl)propanamide] | 9 |  | 23
9 | C[C@]12CCC3c4ccc(F)cc4CCC3C1[C@H](CCC(=O)Nc1nncs1)C/C2=N\O (stereo partly drawn) [Compound 38, 3-((13S,15R,E)-3-fluoro-17-(hydroxyimino)-13-methyl-7,8,9,11,12,13,14,15,16,17-decahydro-6H-cyclopenta[a]phenanthren-15-yl)-N-(1,3,4-thiadiazol-2-yl)propanamide] | 3 |  | 21
10 | C[C@]12CCC3c4cccc(F)c4CCC3C1[C@H](CCC(=O)Nc1ccccn1)C/C2=N\O (stereo partly drawn) [Compound 138, 3-((13S,15R,E)-4-fluoro-17-(hydroxyimino)-13-methyl-7,8,9,11,12,13,14,15,16,17-decahydro-6H-cyclopenta[a]phenanthren-15-yl)-N-(pyridin-2-yl)propanamide] |  | 36 | 89
11 | C[C@]12CCC3c4cccc(F)c4CCC3C1[C@H](CCC(=O)Nc1cc3c([nH]c1=O)CCCC3)C/C2=N\O (stereo partly drawn) [Compound 178, 3-((13S,15R,E)-4-fluoro-17-(hydroxyimino)-13-methyl-7,8,9,11,12,13,14,15,16,17-decahydro-6H-cyclopenta[a]phenanthren-15-yl)-N-(2-oxo-12,5,6,7,8-hexahydroguinolin-3-yl)propanamide] | 9 |  | 95
